According to article PMC9895975 (Scientific Reports, 2023):

Legend:
[1] = tested on: SARS-CoV virus; conditions: cited from earlier work
[2] = Sedimentation equilibrium in the analytical ultracentrifuge (SE-AUC, SEDFIT-MSTAR); format: physicochemical; conditions: for concentration from which the self-association (Mw,app) plateaus: range 0-10 mg/mL, hinge point and M* methods
Protocol: (§1) Teicoplanin samples were prepared in a phosphate-chloride buffered saline solution (PBS, or “Paley buffer”) at pH ~ 6.8 and, by adding NaCl, adjusted to an ionic strength of I = 0.1 mol/L[38].
Sedimentation equilibrium experiments were used to obtain equilibrium concentration distribution profiles for absolute molecular weight measurement. An Optima XL-I analytical ultracentrifuge was also employed but at a lower temperature of 7 °C because of the longer duration of a sedimentation equilibrium experiment compared to sedimenation veloicity. To characterise the self-association/aggregation of teicoplanin, 12 mm double sector epoxy cells were loaded with the same volumes (100 μL ) of both solution and solvent and run at 45,000 rpm for a run time of ~ 48 h. Records of concentration distributions of teicoplanin at equilibrium were subsequently analysed using the model-independent SEDFIT-MSTAR algorithm. Since the non-ideality of teicoplanin is negligible we estimated that apparent weight average molar masses Mw,app were approximately equal to the true weight average molar masses Mw. The multiple concentrations used effectively represent repeats for the sedimentation equilibrium (and sedimentation velocity) experiments.
To determine the weight-average molar masses Mw of teicoplanin, the M* extrapolation method[45] and hinge point analysis, both incorporated in the sedimentation equilibrium-based SEDFIT–MSTAR software[44] were used. […] Rayleigh interference optics provides an accurate record of a sedimentation equilibrium concentration profile c(r) vs r, which means that the local concentration c(r) at the radial position r (cm) is from the rotation centre. M*(r) is a useful operational point average molar mass parameter. M*(r → rb) = Mw is the weight average molar mass over the whole macromolecular distribution, where r is the radial position at the cell base. This method is particularly advantageous for polydisperse/ or self-associating systems. As an additional check, the “hinge point method” (the value of the point weight average molar mass, Mw(r) at the “hinge point” in the sedimentation equilibrium distribution, i.e. the radial position in the cell where the local concentration c(r) = the original loading concentration) provides another estimate for the whole distribution molar mass Mw[44].

[3] = Sedimentation velocity in the analytical ultracentrifuge (SV-AUC); format: physicochemical; conditions: for concentration above which the sedimentation coefficient distribution is unimodal (assembled form): SEDFIT
Protocol: as §1
Experiments to determine sedimentation coefficients and sedimentation coefficient distributions were performed at a temperature of 20.0 °C (at which standardised values are easily calculated) using an Optimal XL-I analytical ultracentrifuge (Beckman Instruments, Palo Alto, CA, USA) with Rayleigh interference optics. Teicoplanin samples (400 μL ) and reference solvent (PBS, 420 μL ) were injected into channels of the 12 mm double sector epoxy cells with sapphire windows. These cells were then centrifuged at 47,500 rpm for a run time of ~ 24 h and the data obtained were analysed in SEDFIT using the least squares, ls-g*(s) processing method. This generates the sedimentation coefficient distribution, g(s) versus sT,b , where sT,b is the sedimentation coefficient, at temperature T in buffer b. The s value in Svedberg units, S = 10^-13 seconds, was then normalised to standard conditions (density ρ20,w and viscosity η20,w of water at 20.0 °C) to give s20,w from the Eq. [43]:2 s20,w=1-υ¯·ρ20,w/1-υ¯·ρT,b·ηT,b/η20,w·sT,b where ρT,b and ηT,b are the density and the viscosity of buffer b at temperature T, respectively.

[4] = Intrinsic viscosity, capillary (rolling ball) viscometry; format: physicochemical; conditions: 10.2 mg/mL; 25.0 °C; rolling ball viscometer AMVn; Solomon-Ciuta relation; phosphate-chloride buffer pH 6.8, I = 0.10 M
Protocol: Teicoplanin solutions were analysed using the capillary viscometer AMVn (Anton-Paar, Graz, Austria). This measurement was conducted at a temperature of 25.0 °C based on the rolling ball viscosity method. With a 1.4 mm steel ball moving in a 1.6 mm diameter glass capillary, the flow times (averaged over repeat measurements) of the solvent and solution were then determined. The relative viscosity was calculated from the equation:4 ηrel=ρ·t/ρ0·t0=ηsp+1 where ηsp is the specific viscosity. Then the intrinsic viscosity η was estimated from the Solomon-Ciuta relation[52] at a concentration of 10.2 mg/ml, which gave a sufficient flow time increment between solvent and solution:5 η≈1/c·2ηsp-2lnηrel^1/2

[5] = Sedimentation equilibrium in the analytical ultracentrifuge (SE-AUC, SEDFIT-MSTAR); format: physicochemical; conditions: M* method, 0-10 mg/mL, corresponds to the unimer
[6] = Hydrodynamic radius by dynamic light scattering (DLS); format: physicochemical; conditions: 12.5 mg/mL; 20.0 °C; scattering angle 173°; Zetasizer Nano-S; averaged over several measurements
Protocol: Dynamic or quasi-elastic light scattering (DLS or QLS) measurements were made on the fixed scattering angle Zetasizer Nano-S system (Malvern instruments Ltd., Malvern UK) equipped with a 4mW He–Ne laser at a wavelength of 632.8nm[46],[47]. Samples in solution were measured in a quartz cuvette at 20.0 °C. A scattering angle of 173° was used, and collected in manual mode, requiring a measurement duration of 90 s, averaged over several measurements. The resulting data were analysed using the “Zetasizer Software (Version 7.1)” (Malvern Instruments Ltd., Malvern, UK), providing a volume distribution of translational diffusion coefficients based on a form of the CONTIN program. The viscosity of the buffer used was calculated using a solvent builder interface and takes the effects of buffer salts into account. The z-average hydrodynamic radii rz (nm), were evaluated from the z-average translational diffusion coefficients Dz by the Stokes–Einstein Eq. [47]:3 rz=kBT/{6πηoDz} where kB is the Boltzmann constant, T is the absolute temperature and η is the viscosity of the medium. […] (ii) the teicoplanin in its monomeric and multi-meric form were quasi-spheroidal and not asymmetric so there was no angular dependence of the measured Dz, values on anisotropic rotational diffusion effects—i.e. an extrapolation to zero angles was not necessary.

[7] = below that value a gel might be formed in solution; cited from earlier work
Protocol: Although it is important to explore how teicoplanin binds to the Lipid II moiety regardless of its phenotypes, the knowledge of the biological form of teicoplanin in an aqueous solution is of importance. Teicoplanin and its aglycon derivatives[25] use their long […] chain to attach themselves to the targeted sites. It is known that the minimum volume of solvent required to dissolve 400 mg of teicoplanin is 3 ml because, below that value, a gel might be formed in solution[10]. Teicoplanin derivatives have also been reported to create nano-sized aggregates in aqueous solution[26]. This gelati ...

[8] = Partial specific volume from solution/solvent densities (digital density meter); format: physicochemical; conditions: c = 10.2 mg/mL; Anton-Paar digital density meter; PBS
Protocol: The partial specific volume υ¯ from solution/ solvent densities was determined using an Anton-Paar (Graz, Austria) digital density meter, and application of:1 υ¯=1/ρ0·1-ρ-ρ0/c at a concentration, c, of 10.2 mg/mL, and where ρ and ρ0 are the densities of the solution and solvent, respectively.

[9] = Global hydrodynamic fit SingleHYDFIT (E2 protocol); format: physicochemical; conditions: assumed molar mass of 18-mer (33835 Da) and of 19-mer (35714 Da), same result for both
Text: To check this, we use a global fitting approach known as SingleHYDFIT[54] which combines intrinsic viscosity data with sedimentation coefficient and dynamic light scattering (hydrodynamic radius) data together, along with the molecular weight and partial specific volume. It involves the minimization of a global fitting function (Fig. 7). The E2 protocol (ratio of ellipsoid) was chosen and run twice: once with an assumed molar mass equivalent of an 18-mer (33835 Da) and once again with an assumed molar mass of 19-mer (35714 Da). Delta (Δ) was plotted against axial ratio, where values < 1 mean oblate and > 1 mean prolate (Fig. 7).

[10] = Conformational analysis from intrinsic viscosity (ELLIPS1, Einstein-Simha shape factor); format: physicochemical; conditions: for axial ratio (a/b) oblate / axial ratio (a/b) prolate: ELLIPS1; for viscosity shape function ν: [η] = 3.2 mL/g; for swelling ratio vs/υ¯ through dynamic hydration: maximum value, corresponds to a/b = 1 (sphere), confirmed by SingleHYDFIT
Text: In order to interpret this in terms of a molecular shape account needs to be taken of the contribution of the swollen specific volume of the assembly in solution vs (which will be swollen due to a time-averaged association with the surrounding solvent through dynamic hydrogen bonding and other associative processes)[43]:6 [η]=ν.vs
Equation (6) ν is the Einstein-Simha shape factor. vs is likely to be higher for the glycopeptide than for proteins due to the relatively large proportion of carbohydrate which tends to have a greater affinity for solvent. In Table 1 values of the shape factor ν , and their corresponding ellipsoid of revolution axial ratios a/b were calculated based on either a prolate or oblate model, using the routine ELLIPS1 (Harding et al. 1997) for 3 cases of vs/ υ¯ , including the (unlikely) case of no swelling vs/ υ¯ = 1. The maximum value for vs/ υ¯ ~ 2, which corresponds to the minimum value of a/b = 1 (i.e. a sphere, Fig. 6), and this seems the most likely scenario.

[11] = without a lipid chain; cited from earlier work
[12] = tested on: CTSL-dependent viruses; conditions: cited from earlier work
[13] = phosphate-chloride buffer pH 6.8, I = 0.10 M, 7 °C, SEDFIT-MSTAR
[14] = assumed vs/υ¯ = 1 (no swelling)

teicoplanin A2
effect on cell entry of the SARS-CoV virus [1]: inhibited cell entry | number of monomers in the assembly (mers), M* method ([2]; from plateau Mw 33,000 g/mol, buffer pH 6.8, I = 0.10 M): ~ 18 mers | number of monomers in the assembly (mers), hinge point method ([2]; from plateau Mw 35,400 g/mol, buffer pH 6.8, I = 0.10 M): ~19 ± 1 mers | plateau weight average molar mass Mw,app, M* method ([2]; phosphate-chloride buffer pH 6.8, I = 0.10 M, 7 °C, 45,000 rpm, ~48 h, SEDFIT-MSTAR, c from 1 mg/mL): 33,000 ± 1000 g/mol | plateau weight average molar mass Mw,app, hinge point method ([2]; phosphate-chloride buffer pH 6.8, I = 0.10 M, 7 °C, 45,000 rpm, ~48 h, SEDFIT-MSTAR, c from 1 mg/mL up to 10 mg/mL): 35,400 ± 1000 g/mol | apparent weight average molar mass Mw extrapolated to zero concentration (M* method) [2, 13]: 1.9 ± 0.1 kDa | weight average molar mass extrapolated to zero concentration, hinge point method Mw(rhinge) [2, 13]: 2.7 ± 0.1 kDa | concentration from which the self-association (Mw,app) plateaus ([2]; phosphate-chloride buffer pH 6.8, I = 0.10 M): > 1000 µg/mL | concentration from which the self-association (Mw,app) plateaus ([2]; phosphate-chloride buffer pH 6.8, I = 0.10 M, listed as teicoplanin): 1000 µg/mL | size of the self-associated assembly (n-mer), overall ([2]; phosphate-chloride buffer pH 6.8, I = 0.10 mol/L, AUC and viscometry combined): 18–19 mer | s-value (not normalised) of teicoplanin dissolved in 6 M GuHCl ([3]; 6 M GuHCl, SV-AUC): ~ 0.7 S | s20,w of teicoplanin dissolved in 6 M GuHCl ([3]; 6 M GuHCl, SV-AUC, normalised to water at 20.0 °C): 1.17 ± 0.01 S | sedimentation coefficient s20,w of the self-associated assembly (upper extrapolated value) ([3]; phosphate-chloride buffer pH 6.8, I = 0.10 M, 20.0 °C, 47,500 rpm, ~24 h, Rayleigh interference optics, SEDFIT ls-g*(s), s vs c plot, 0-5 mg/mL): ~ 4.65 S | concentration above which the sedimentation coefficient distribution is unimodal (assembled form) ([3]; phosphate-chloride buffer pH 6.8, I = 0.10 M, 20.0 °C): > 500 µg/mL | concentration above which the sedimentation coefficient distribution is unimodal (assembled form) ([3]; phosphate-chloride buffer pH 6.8, I = 0.10 M, 20.0 °C, listed as teicoplanin): > 500 µg/mL | sedimentation coefficient, lower extrapolated value (predicted value for a spheroidal unimer) ([3]; phosphate-chloride buffer pH 6.8, I = 0.10 M, 20.0 °C, s vs c plot extrapolated to low concentration): ~ 0.7 S | concentration below which the assembly dissociates (separation, bimodality) ([3]; phosphate-chloride buffer pH 6.8, I = 0.10 mol/L, 20.0 °C): < 500 µg/mL | intrinsic viscosity [η] [4]: 3.2 ± 0.1 mL/g | weight-average molar mass Mw in 6 M GuHCl [5]: 1.75 ± 0.35 kDa | z-average hydrodynamic radius rz [6]: ~ 3.2 nm | minimum volume of solvent required to dissolve 400 mg [7]: 3 mL | partial specific volume υ¯ [8]: 0.64 ± 0.01 mL/g | axial ratio of the assembly from SingleHYDFIT [9]: 1.0 ± 0.0 | swollen specific volume vs [10, 14]: 0.64 mL/g | axial ratio (a/b) oblate [10, 14]: 5.4 | axial ratio (a/b) prolate [10, 14]: 4.3 | viscosity shape function ν [10, 14]: 5.0 | swollen specific volume vs ([10]; assumed vs/υ¯ = 1.5): 0.96 mL/g | axial ratio (a/b) oblate ([10]; assumed vs/υ¯ = 1.5): 2.8 | axial ratio (a/b) prolate ([10]; assumed vs/υ¯ = 1.5): 2.5 | viscosity shape function ν ([10]; assumed vs/υ¯ = 1.5): 3.3 | swollen specific volume vs ([10]; assumed vs/υ¯ = 2): 1.28 mL/g | axial ratio (a/b) oblate ([10]; assumed vs/υ¯ = 2): 1 | axial ratio (a/b) prolate ([10]; assumed vs/υ¯ = 2): 1 | viscosity shape function ν ([10]; assumed vs/υ¯ = 2): 2.5 | swelling ratio vs/υ¯ through dynamic hydration [10]: ~ 2 | swelling ratio vs/υ¯ through dynamic hydration ([10]; listed as teicoplanin): 2

teicoplanin aglycon
self-association in solution [11]: dimerise weakly

vancomycin
antiviral activity against CTSL-dependent viruses [12]: cannot express antiviral activity
